Results as given in article PMC9239047 (mBio, 2022).
Positions of bridges follow the written chain, without caps; N, C: chain ends. Residues, ends and D or L forms follow the SMILES beside them.

Assays:
S. hominis agr-I = S. hominis agr-I P3::sGFP reporter assay (AH5009 + pCM41); format: cell-based, Staphylococcus hominis; settings: for S. hominis agr-I reporter growth (OD600): increasing concentrations of synthetic AIP; for effect on S. hominis agr-I fluorescent signal (in words): increasing doses of synthetic AIP, early signal
MRSA agr-I = MRSA agr-I (Staphylococcus aureus, UniProt O07911); experiment: MRSA agr-I P3::YFP fluorescent reporter assay; format: cell-based
Sequence of MRSA agr-I (O07911 entry or part of it): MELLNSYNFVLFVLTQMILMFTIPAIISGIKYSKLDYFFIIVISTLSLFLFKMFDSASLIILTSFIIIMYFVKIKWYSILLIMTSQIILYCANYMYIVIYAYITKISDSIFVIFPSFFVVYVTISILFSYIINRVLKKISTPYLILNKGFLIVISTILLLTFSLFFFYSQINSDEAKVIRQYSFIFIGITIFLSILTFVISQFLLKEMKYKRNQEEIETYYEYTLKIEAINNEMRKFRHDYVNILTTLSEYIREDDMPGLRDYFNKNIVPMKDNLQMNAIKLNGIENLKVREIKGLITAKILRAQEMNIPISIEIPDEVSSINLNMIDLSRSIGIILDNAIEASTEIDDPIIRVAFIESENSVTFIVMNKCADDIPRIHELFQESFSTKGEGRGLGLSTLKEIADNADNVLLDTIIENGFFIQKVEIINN

USA300 MRSA (strain LAC) = experiment: Murine dermonecrosis model; format: in vivo, BALB/c mice; settings: 10 or 50 μg synthetic AIP-II in DMSO mixed with 1 × 10^8 CFU MRSA, intradermal; vs vehicle; n = 10 per group; dose dependent
MRSA agr-II = MRSA agr-II (Staphylococcus aureus, UniProt O33587); experiment: MRSA agr-II P3::YFP fluorescent reporter assay; format: cell-based
Sequence of MRSA agr-II (O33587 entry or part of it): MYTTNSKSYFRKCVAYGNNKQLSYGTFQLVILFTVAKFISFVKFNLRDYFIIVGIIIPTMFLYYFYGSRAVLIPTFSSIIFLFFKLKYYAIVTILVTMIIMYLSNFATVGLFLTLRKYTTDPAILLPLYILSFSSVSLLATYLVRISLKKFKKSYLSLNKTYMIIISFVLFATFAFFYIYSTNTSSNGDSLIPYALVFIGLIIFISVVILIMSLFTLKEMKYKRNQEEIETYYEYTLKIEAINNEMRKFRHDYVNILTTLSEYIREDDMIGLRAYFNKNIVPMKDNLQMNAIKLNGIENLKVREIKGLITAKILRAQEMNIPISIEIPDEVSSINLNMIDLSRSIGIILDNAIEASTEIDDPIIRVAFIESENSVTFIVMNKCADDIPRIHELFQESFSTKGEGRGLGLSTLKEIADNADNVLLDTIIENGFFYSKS

MRSA strain LAC = experiment: Murine epicutaneous infection; format: in vivo, C57BL/6J mice
S. hominis agr-II = S. hominis agr-II P3::sGFP reporter assay (AH4553 + pCM41); format: cell-based, Staphylococcus hominis; settings: for S. hominis agr-II reporter growth (OD600): increasing concentrations of synthetic AIP; for effect on S. hominis agr-II fluorescent signal (in words): increasing doses of synthetic AIP, early signal
MRSA agr-IV = MRSA agr-IV (Staphylococcus aureus, UniProt Q309Z2); experiment: MRSA agr-IV P3::YFP fluorescent reporter assay; format: cell-based; settings: for inhibition of MRSA agr-IV by synthetic AIP (in words): synthetic AIP dose response, 24 h fluorescence
Sequence of MRSA agr-IV (Q309Z2 entry or part of it): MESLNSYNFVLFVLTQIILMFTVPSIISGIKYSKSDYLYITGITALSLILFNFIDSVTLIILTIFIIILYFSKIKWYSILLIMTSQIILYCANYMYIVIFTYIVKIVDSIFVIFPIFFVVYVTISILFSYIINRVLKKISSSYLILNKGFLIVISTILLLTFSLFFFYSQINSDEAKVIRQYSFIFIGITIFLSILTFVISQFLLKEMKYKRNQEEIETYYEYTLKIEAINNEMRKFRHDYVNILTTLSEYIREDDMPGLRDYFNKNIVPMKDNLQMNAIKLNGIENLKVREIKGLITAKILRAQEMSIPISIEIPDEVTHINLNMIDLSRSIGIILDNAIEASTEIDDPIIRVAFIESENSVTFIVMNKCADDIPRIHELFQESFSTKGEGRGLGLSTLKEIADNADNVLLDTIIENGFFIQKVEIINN

MRSA agr-III = MRSA agr-III (Staphylococcus aureus, UniProt O33590); experiment: MRSA agr-III P3::YFP fluorescent reporter assay; format: cell-based
Sequence of MRSA agr-III (O33590 entry or part of it): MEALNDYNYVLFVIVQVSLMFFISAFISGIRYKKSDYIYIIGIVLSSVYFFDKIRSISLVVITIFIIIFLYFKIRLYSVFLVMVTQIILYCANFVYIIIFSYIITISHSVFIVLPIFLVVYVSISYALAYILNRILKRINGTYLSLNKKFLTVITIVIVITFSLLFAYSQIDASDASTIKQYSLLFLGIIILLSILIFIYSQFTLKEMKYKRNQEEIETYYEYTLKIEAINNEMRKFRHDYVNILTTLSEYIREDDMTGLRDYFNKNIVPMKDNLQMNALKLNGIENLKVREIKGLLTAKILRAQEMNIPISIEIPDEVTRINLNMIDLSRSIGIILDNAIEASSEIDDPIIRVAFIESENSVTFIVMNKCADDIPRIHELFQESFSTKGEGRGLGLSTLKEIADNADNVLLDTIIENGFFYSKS

MRSA = settings: mouse model; cited from earlier work
S. epidermidis agr-I = S. epidermidis agr-I (Staphylococcus epidermidis, UniProt O86861); experiment: S. epidermidis agr-I P3::sGFP reporter assay; format: cell-based
Sequence of S. epidermidis agr-I (O86861 entry or part of it): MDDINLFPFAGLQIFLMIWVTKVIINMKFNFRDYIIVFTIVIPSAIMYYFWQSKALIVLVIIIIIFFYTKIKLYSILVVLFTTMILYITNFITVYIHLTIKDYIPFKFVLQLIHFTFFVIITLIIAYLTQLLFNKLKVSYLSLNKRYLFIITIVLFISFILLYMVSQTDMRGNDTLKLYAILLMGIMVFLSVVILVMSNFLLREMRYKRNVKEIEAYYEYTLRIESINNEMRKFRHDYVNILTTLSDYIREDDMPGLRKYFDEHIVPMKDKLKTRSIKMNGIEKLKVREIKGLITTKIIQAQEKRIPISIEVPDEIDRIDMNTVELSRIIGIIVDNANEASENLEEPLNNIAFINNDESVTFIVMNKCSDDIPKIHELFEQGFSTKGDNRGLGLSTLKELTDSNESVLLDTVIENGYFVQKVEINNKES

[1] = tested on: S. hominis AH5009 AgrA-regulated genes; experiment: RNA-seq of apicidin-treated S. hominis agr-I; format: cell-based, Staphylococcus hominis
[2] = tested on: S. hominis AH5009 PSM-β1 production; experiment: Mass spectrometric detection of PSM-β1 in conditioned medium; format: cell-based, Staphylococcus hominis; settings: 100 μM apicidin or DMSO, 8 h; LC-MS; triplicate injections of biological triplicates
[3] = cognate AIP, fluorescence at 8 h
[4] = 100 μM apicidin vs DMSO, 4-fold cutoff, false discovery rate P value ≤0.05
[5] = RNA-seq, S. hominis AH5009, 100 μM apicidin vs DMSO, 8 h, biological triplicate
[6] = RNA-seq, S. hominis AH5009, 100 μM apicidin vs DMSO, 8 h, outside 4-fold cutoff
[7] = 100 μM apicidin vs DMSO, over 24 h

C[C@@H]1NC(=O)[C@@H](NC(=O)[C@@H]2CCCN2C(=O)[C@H](CO)NC(=O)[C@H](Cc2ccc(O)cc2)NC(=O)[C@@H](N)CO)CSC(=O)[C@H](Cc2ccccc2)NC(=O)[C@H](Cc2ccc(O)cc2)NC(=O)[C@H]([C@@H](C)O)NC1=O [AIP-II] (H-SYSPCATYF; thioester 5-C; N-terminus assumed)
S. hominis agr-I reporter growth (OD600) (S. hominis agr-I): no effect on reporter growth
IC50 (S. hominis agr-I; read-out: IC50, inhibition of S. hominis agr-I signaling, noncognate synthetic AIP dose response, relative fluorescence at 8 h, three independent experiments pooled): 9 nM
IC50 (MRSA agr-I): 15 nM
dermonecrotic lesion size (USA300 MRSA (strain LAC)): significantly smaller lesions
IC50 (MRSA agr-II): 2110 nM
barrier function by transepithelial water loss (TEWL) (MRSA strain LAC; 10 or 50 μg synthetic AIP-II with 1 × 10^8 CFU MRSA on gauze, 72 h topical, vs vehicle, n = 10 per group): retained more of their barrier function
total CFU burden in epicutaneous lesions (MRSA strain LAC; 10 or 50 μg synthetic AIP-II, 72 h postinfection): no differences in CFU between groups
gross morphology of the skin (MRSA strain LAC; synthetic AIP-II-treated vs vehicle control mice, 72 hpi): less redness, scaling, and erythema
concentration of synthetic AIP optimal to boost S. hominis agr-II fluorescent signal (S. hominis agr-II; [3]): 12.5 nM
S. hominis agr-II reporter growth (OD600) (S. hominis agr-II): no effect on growth
IC50 (MRSA agr-IV): 1130 nM
inhibition of MRSA agr-IV by synthetic AIP (in words) (MRSA agr-IV): poorly inhibited
IC50 (MRSA agr-III): 3 nM

CC[C@H](C)[C@H](NC(=O)[C@@H](N)[C@@H](C)O)C(=O)N[C@@H](CC(N)=O)C(=O)N[C@H](C(=O)N[C@H]1CSC(=O)[C@H](Cc2ccccc2)NC(=O)[C@H](Cc2ccc(O)cc2)NC(=O)CNC(=O)CNC1=O)[C@@H](C)O [AIP-IV] (H-TINTCGGYF; thioester 5-C; N-terminus assumed)
S. hominis agr-I reporter growth (OD600) (S. hominis agr-I): did not impact the growth
effect on S. hominis agr-I fluorescent signal (in words) (S. hominis agr-I): slightly boosted early agr-I signaling
IC50 (MRSA agr-I): 128 nM
IC50 (MRSA agr-II): 140 nM
S. hominis agr-II reporter growth (OD600) (S. hominis agr-II): did not impact the growth
effect on S. hominis agr-II fluorescent signal (in words) (S. hominis agr-II): negligible effects on agr-II
inhibition of MRSA agr-IV by synthetic AIP (in words) (MRSA agr-IV): not inhibited
IC50 (MRSA agr-III): 37 nM

CC(C)[C@H](NC(=O)[C@H](CC(N)=O)NC(=O)[C@H](Cc1ccc(O)cc1)NC(=O)[C@@H](N)CO)C(=O)N[C@H]1CSC(=O)[C@H](Cc2ccccc2)NC(=O)[C@H](Cc2ccc(O)cc2)NC(=O)CNC(=O)CNC1=O [AIP-I] (H-SYNVCGGYF; thioester 5-C)
concentration of synthetic AIP that significantly boosted S. hominis agr-I fluorescent signal (S. hominis agr-I; [3]): ≥ 25 nM
S. hominis agr-I reporter growth (OD600) (S. hominis agr-I): no effect on growth
MRSA-associated AD symptoms (MRSA): effectively mitigates MRSA-associated AD symptoms
S. hominis agr-II reporter growth (OD600) (S. hominis agr-II): no impact on reporter growth
IC50 (S. hominis agr-II; read-out: IC50, inhibition of S. hominis agr-II fluorescent signaling, noncognate synthetic AIP dose response, relative fluorescence at 8 h, three independent experiments pooled): 7 nM
inhibition of MRSA agr-IV by synthetic AIP (in words) (MRSA agr-IV): poorly inhibited
inhibition of S. epidermidis agr-I (in words) (S. epidermidis agr-I; synthetic AIP dose response): poor inhibitor
S. epidermidis agr-I early fluorescent signal (S. epidermidis agr-I; synthetic AIP, first 8 h of incubation): boosted the fluorescent signal

CC(C)[C@H](NC(=O)[C@@H](NC(=O)[C@H](CCC(N)=O)NC(=O)[C@@H](N)CO)[C@@H](C)O)C(=O)N[C@H]1CSC(=O)[C@H](Cc2ccccc2)NC(=O)[C@H](Cc2ccc(O)cc2)NC(=O)CNC(=O)[C@H](CO)NC1=O [AIP-V] (H-SQTVCSGYF; thioester 5-C; N-terminus assumed)
S. hominis agr-I reporter growth (OD600) (S. hominis agr-I): did not impact the growth
effect on S. hominis agr-I fluorescent signal (in words) (S. hominis agr-I): weak to negligible effects on agr-I
IC50 (MRSA agr-I): 43 nM
IC50 (MRSA agr-II): 59 nM
S. hominis agr-II reporter growth (OD600) (S. hominis agr-II): did not impact the growth
effect on S. hominis agr-II fluorescent signal (in words) (S. hominis agr-II): modestly inhibited agr-II
IC50 (MRSA agr-IV): 3810 nM
inhibition of MRSA agr-IV by synthetic AIP (in words) (MRSA agr-IV): poorly inhibited
IC50 (MRSA agr-III): 4 nM

CCC(=O)CCCCC[C@@H]1NC(=O)[C@H]2CCCCN2C(=O)[C@H]([C@@H](C)CC)NC(=O)[C@H](Cc2cn(OC)c3ccccc23)NC1=O [apicidin]
number of genes downregulated [1, 4]: 40 genes
number of genes significantly upregulated [1, 4]: 7 genes
Fold change, MOV58_00040 serine--tRNA ligase [1, 5]: -5.87 fold
Fold change, MOV58_00405 arsenate reductase [1, 5]: -5.32 fold
Fold change, MOV58_00410 anion permease [1, 5]: -4.39 fold
Fold change, MOV58_00550 (S)-acetoin forming diacetyl reductase [1, 5]: -7.89 fold
Fold change, MOV58_01010 acetoin reductase/dehydrogenase [1, 5]: -5.45 fold
Fold change, MOV58_01015 yxel choloylglycine hydrolase family protein [1, 5]: -4.94 fold
Fold change, MOV58_01105 excinuclease ABC subunit UvrA [1, 5]: 8.12 fold
Fold change, MOV58_01110 arylamine N-acetyltransferase [1, 5]: 9.09 fold
Fold change, MOV58_01115 ABC2 transporter permease [1, 5]: 9.05 fold
Fold change, MOV58_01120 ABC transporter ATP binding protein btuD [1, 5]: 10.45 fold
Fold change, MOV58_01125 DUF3169 family protein [1, 5]: 19.01 fold
Fold change, MOV58_01130 helix turn helix transcriptional regulator [1, 5]: 18.5 fold
Fold change, MOV58_02040 aldehyde dehydrogenase family protein [1, 5]: -4.94 fold
Fold change, MOV58_05440 hypothetical protein [1, 5]: -5.09 fold
Fold change, MOV58_05705 hypothetical protein [1, 5]: -4.08 fold
Fold change, MOV58_05710 hypothetical protein [1, 5]: -6.86 fold
Fold change, MOV58_05715 fructose-bisphosphatase class III [1, 5]: -6.94 fold
Fold change, MOV58_05720 hypothetical protein [1, 5]: -5.64 fold
Fold change, MOV58_05820 hypothetical protein [1, 5]: -9.59 fold
Fold change, MOV58_06035 universal stress protein [1, 5]: -4.69 fold
Fold change, MOV58_06695 RNA polymerase sigma factor RpoD [1, 5]: -10.14 fold
Fold change, MOV58_07655 hypothetical protein [1, 5]: 4.07 fold
Fold change, MOV58_07775 hypothetical protein [1, 5]: -4.58 fold
Fold change, MOV58_07810 MerR family transcriptional regulator [1, 5]: -4.32 fold
Fold change, MOV58_08480 beta class phenol soluble modulin [1, 5]: -11.36 fold
Fold change, MOV58_08485 beta class phenol soluble modulin [1, 5]: -11.33 fold
Fold change, MOV58_08490 beta class phenol soluble modulin [1, 5]: -9.37 fold
Fold change, MOV58_08495 beta class phenol soluble modulin [1, 5]: -8.82 fold
Fold change, MOV58_09035 hypothetical protein [1, 5]: -4.5 fold
Fold change, MOV58_09040 IDEAL domain containing protein [1, 5]: -6.02 fold
Fold change, MOV58_09615 Hypothetical protein [1, 5]: -4.82 fold
Fold change, MOV58_09645 hypothetical protein [1, 5]: -5.25 fold
Fold change, MOV58_09650 hypothetical protein [1, 5]: -5.02 fold
Fold change, MOV58_09655 hypothetical protein [1, 5]: -4.73 fold
Fold change, MOV58_09715 phosphoglycerate kinase [1, 5]: -6.94 fold
Fold change, MOV58_09720 type I glyceraldehyde-3-phosphate dehydrogenase [1, 5]: -4.93 fold
Fold change, MOV58_09725 CggR, central glycolytic genes regulator [1, 5]: -7.22 fold
Fold change, MOV58_09730 hypothetical [1, 5]: -5.22 fold
Fold change, MOV58_10080 fructose-specific PTS transporter subunit EIIC [1, 5]: -4.31 fold
Fold change, MOV58_10085 1-phosphofruktokinase [1, 5]: -22.43 fold
Fold change, MOV58_10090 DeoR/GlpR family DNA-binding transcription regulator [1, 5]: -27.93 fold
Fold change, MOV58_10435 alpha/beta hydrolase [1, 5]: -6.85 fold
Fold change, MOV58_10445 Hypothetical protein [1, 5]: -10.93 fold
Fold change, MOV58_10515 flavodoxin family protein [1, 5]: -5.24 fold
Fold change, MOV58_10990 Hypothetical protein [1, 5]: -4.65 fold
Fold change, MOV58_11890 LytTR family DNA binding domain containing protein [1, 5]: -7.12 fold
Fold change, MOV58_11895 DUF3021 domain-containing protein [1, 5]: -5.21 fold
RNAIII expression, down -fold [1, 6]: 3.40 fold
agrB expression, down -fold [1, 6]: 2.89 fold
agrD expression, down -fold [1, 6]: 3.08 fold
S. hominis agr-I P3::sGFP growth (OD600) (S. hominis agr-I; [7]): no effect on growth
S. hominis agr-I signaling (P3::sGFP fluorescence) (S. hominis agr-I; [7]): inhibited S. hominis agr-I signaling
PSM-β1 presence in S. hominis cultures [2]: present only in S. hominis cultures treated with DMSO, not in those treated with apicidin
